Results on 15 compounds are retold here after patent US20250136722A1, “CYTOTOXICITY TARGETING CHIMERAS” (GLAXOSMITHKLINE INTELLECTUAL PROPERTY DEVELOPMENT LIMITED, priority 2021, published 2025).

Several values for one entry are separate records, joined by “and”; a condition that tells them apart may be missing. Equal entries are not always repeated.

The target in experiment [1] is T1, CHOK1 cells engineered to overexpress human CCR2 (Homo sapiens, UniProt P41597).
T1 construct: expressed in transfected cells; host or cells: CHOK1 cells
The experiment can be described thus: Antibody dependent cellular cytotoxicity (ADCC) reporter assay (Example 199). In kind it is cell-based. The conditions noted are these: with anti-cotinine antibody SEQ ID NO: 11/12; CHOK1-human CCR2 target cells, Jurkat FcγRIIIa NFAT-luciferase reporter cells; 12-18 hours; read-out: ADCC Reporter Assay pEC50 (converted). In outline:
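Potency is reported as pEC50 from a nonlinear fit, averaged over runs, using luciferase signal divided by that of compound-free wells. The readout comes from NFAT-luciferase Jurkat cells expressing FcγRIIIa, mixed for 12–18 h with human CCR2-overexpressing CHOK1 cells, 1 pM–10 μM ARM compound and 0.01–200 μg/mL Fc-enhanced anti-cotinine IgG1.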

Experiment [2] addresses Anti-cotinine antibody (SEQ ID NO: 11 / SEQ ID NO: 12, rabbit variable region with human IgG1 Fc domain). In words: Binding of anti-cotinine antibody to ARM compounds by SPR, Biacore T200, 37° C. (Example 202). The conditions noted are these: pH 7.4, rabbit variable region/human IgG1 Fc antibody captured on protein A. On the procedure: Anti-cotinine antibodies having a heavy chain sequence of SEQ ID NO: 11 and a light chain sequence of SEQ ID NO: 12 (rabbit variable region with human IgG1 Fc domain containing a DE mutation (S239D/1332E)) were captured on one or more flow cells of a protein A sensor chip (Cytiva) using a Biacore T200 while reserving flow cell 1 as a reference. Following capture, a 3000 second wait step was included to reduce drift during compound analysis. ARM compounds of Formula (I) were then injected at 100 μL/min with 200 and 2000 second association and dissociation times. The entire experiment was run at 37° C. with running buffer containing 10 mM HEPES pH 7.4, 150 mM NaCl, 0.005% P20 and 1% DMSO. ARM compounds of Formula (I) were titrated with a top concentration of 200 nM using a 3-fold 5-point dilution series and a corresponding 5-injection buffer cycle was run for blank subtraction. Data were double referenced by subtracting the response of the reference flow cell from that of the antibody-containing flow cell and subsequently subtracting the referenced blank sensorgrams. Following compound analysis, the surface was regenerated using a 30 second injection of pH 1.5 glycine at a flow rate of 30 μL/min after which antibody was re-captured. The experiment was run using Biacore T200 control software and evaluated using Biacore T200 Evaluation software. Curves were fit with a 1:1 kinetic binding model to obtain kon(1/Ms), koff(1/s), Kd (M) determined as koff/kon, and residence time determined as 1/koff. (s).
Anti-cotinine antibody was tested for binding to ARMs compounds of Formula (I) of the invention in the above assay in or more experimental runs and the results are shown in Table 5 below. Affinity is reported as a pKd value. The pKd value is the negative log of the Kd value, wherein the Kd value is the dissociation constant measured in molar (M) as noted above. For compounds tested in more than one experimental run, the pKd value is reported as an average.

As for `CC(C)N(C)[C@@H]1CC[C@H](N2CC[C@H](Nc3ncnc4ccc(C(F)(F)F)cc34)C2=O)[C@H](NC(=O)CCOCCNC(=O)CCCO[C@H]2CC[C@@H](OCCNC(=O)[C@H]3CC(=O)N(C)[C@@H]3c3cccnc3)CC2)C1` [Example 6], the EC50 in experiment [1] is 0.378 nM. Moreover, in experiment [2], the “pKd of Antibody for ARM Compound of Formula (I)” value (“pKd of Antibody” below) worked out at 9.282.
As to `CC(C)N(C)[C@@H]1CC[C@H](N2CC[C@H](Nc3ncnc4ccc(C(F)(F)F)cc34)C2=O)[C@H](NC(=O)[C@H]2CC[C@@H](NC(=O)CCOCCNC(=O)CCCCNC(=O)[C@H]3CC(=O)N(C)[C@@H]3c3cccnc3)CC2)C1` [Example 198, (2S,3S)-N-(5-((2-(3-(((1S,4s)-4-(((1R,2S,5R)-5-(Isopropyl(methyl)amino)-2-((S)-2-oxo-3-((6-(trifluoromethyl)quinazolin-4-yl)amino)pyrrolidin-1-yl)cyclohexyl)carbamoyl)cyclohexyl)amino)-3-oxopropoxy)ethyl)amino)-5-oxopentyl)-1-methyl-5-oxo-2-(pyridin-3-yl)pyrrolidine-3-carboxamide], in experiment [1], the EC50 is 0.398 nM and 0.316 nM. The “pKd of Antibody” value in experiment [2] is 9.3835.
Consider `CC(C)N(C)[C@@H]1CC[C@H](N2CC[C@H](Nc3ncnc4ccc(C(F)(F)F)cc34)C2=O)[C@H](NC(=O)[C@H]2CC[C@H](NC(=O)CCCO[C@H]3CC[C@@H](OCCNC(=O)[C@H]4CC(=O)N(C)[C@@H]4c4cccnc4)CC3)CC2)C1` [Example 4], for which the EC50 in experiment [1] is 6.3 nM and 2.79 nM and 4.89 nM. The “pKd of Antibody” value in experiment [2] was 9.526.
In the case of `CC(C)N(C)[C@@H]1CC[C@H](N2CC[C@H](Nc3ncnc4ccc(C(F)(F)F)cc34)C2=O)[C@H](NC(=O)COCCNC(=O)[C@H]2CC[C@@H](NC(=O)CCOCCNC(=O)[C@H]3CC(=O)N(C)[C@@H]3c3cccnc3)CC2)C1` [Example 109], in experiment [1], the EC50 is 0.17 nM. The “pKd of Antibody” value in experiment [2] stood at 8.951.
On the same counts, the results for `CC(C)N(C)[C@@H]1CC[C@H](N2CC[C@H](Nc3ncnc4ccc(C(F)(F)F)cc34)C2=O)[C@H](NC(=O)CCOCCOCCOCCNc2c(NCCNC(=O)[C@H]3CC(=O)N(C)[C@@H]3c3cccnc3)c(=O)c2=O)C1` [Example 168, (2S,3S)-N-(2-((2-((2-(2-(2-(3-(((1R,2S,5R)-5-(Isopropyl(methyl)amino)-2-((S)-2-oxo-3-((6-(trifluoromethyl)quinazolin-4-yl)amino)pyrrolidin-1-yl)cyclohexyl)amino)-3-oxopropoxy)ethoxy)ethoxy)ethyl)amino)-3,4-dioxocyclobut-1-en-1-yl)amino)ethyl)-1-methyl-5-oxo-2-(pyridin-3-yl)pyrrolidine-3-carboxamide] are 0.793 nM and 9.06.
For `CC(C)N(C)[C@@H]1CC[C@H](N2CC[C@H](Nc3ncnc4ccc(C(F)(F)F)cc34)C2=O)[C@H](NC(=O)[C@H]2CC[C@@H](NC(=O)CCCO[C@H]3CC[C@@H](OCCNC(=O)[C@H]4CC(=O)N(C)[C@@H]4c4cccnc4)CC3)CC2)C1` [Example 3], in experiment [1], the EC50 was 0.155 nM and 0.283 nM. For the same compound, the “pKd of Antibody” value in experiment [2] is on record as 9.2795.
Consider `CC(C)N(C)[C@@H]1CC[C@H](N2CC[C@H](Nc3ncnc4ccc(C(F)(F)F)cc34)C2=O)[C@H](NC(=O)[C@H]2CC[C@@H](NC(=O)COCCOCCNC(=O)CNC(=O)[C@H]3CC(=O)N(C)[C@@H]3c3cccnc3)CC2)C1` [Example 171, (2S,3S)-N-(2-((2-(2-(2-(((1S,4s)-4-(((1R,2S,5R)-5-(Isopropyl(methyl)amino)-2-((S)-2-oxo-3-((6-(trifluoromethyl)quinazolin-4-yl)amino)pyrrolidin-1-yl)cyclohexyl)carbamoyl)cyclohexyl)amino)-2-oxoethoxy)ethoxy)ethyl)amino)-2-oxoethyl)-1-methyl-5-oxo-2-(pyridin-3-yl)pyrrolidine-3-carboxamide], for which the EC50 in experiment [1] is 0.802 nM. The “pKd of Antibody” value in experiment [2] amounted to 8.7865.
Regarding `CC(C)N(C)[C@@H]1CC[C@H](N2CC[C@H](Nc3ncnc4ccc(C(F)(F)F)cc34)C2=O)[C@H](NC(=O)COCCOCCNC(=O)COCCNC(=O)CCNC(=O)[C@H]2CC(=O)N(C)[C@@H]2c2cccnc2)C1` [Example 74, (2S,3S)-N-(1-(((1R,2S,5R)-5-(isopropyl(methyl)amino)-2-((S)-2-oxo-3-((6-(trifluoromethyl)quinazolin-4-yl)amino)pyrrolidin-1-yl)cyclohexyl)amino)-1,10,16-trioxo-3,6,12-trioxa-9,15-diazaoctadecan-18-yl)-1-methyl-5-oxo-2-(pyridin-3-yl)pyrrolidine-3-carboxamide], in experiment [1], the EC50 was 9.64 nM. Also, the “pKd of Antibody” value in experiment [2] amounted to 9.091.
With `CC(C)N(C)[C@@H]1CC[C@H](N2CC[C@H](Nc3ncnc4ccc(C(F)(F)F)cc34)C2=O)[C@H](NC(=O)CCOCCOCCOCCNc2c(NCCCNC(=O)[C@H]3CC(=O)N(C)[C@@H]3c3cccnc3)c(=O)c2=O)C1` [compound 169], the EC50 in experiment [1] is 1.05 nM. Moreover, the “pKd of Antibody” value in experiment [2] is recorded as 9.0085.
On the same counts, the results for `CC(C)N(C)[C@@H]1CC[C@H](N2CC[C@H](Nc3ncnc4ccc(C(F)(F)F)cc34)C2=O)[C@H](NC(=O)CCOCCNC(=O)[C@H]2CC[C@H](NC(=O)COCCNC(=O)[C@H]3CC(=O)N(C)[C@@H]3c3cccnc3)CC2)C1` [Example 108] are 0.0501 nM and 8.9855.
The like results for `CC(C)N(C)[C@@H]1CC[C@H](N2CC[C@H](Nc3ncnc4ccc(C(F)(F)F)cc34)C2=O)[C@H](NC(=O)CCNC2CCC3(CC2)CCN(CCCNC(=O)[C@H]2CC(=O)N(C)[C@@H]2c2cccnc2)CC3)C1` [Example 138, (2S,3S)-N-(3-(9-((3-(((1R,2S,5R)-5-(Isopropyl(methyl)amino)-2-((S)-2-oxo-3-((6-(trifluoromethyl)quinazolin-4-yl)amino)pyrrolidin-1-yl)cyclohexyl)amino)-3-oxopropyl)amino)-3-azaspiro[5.5]undecan-3-yl)propyl)-1-methyl-5-oxo-2-(pyridin-3-yl)pyrrolidine-3-carboxamide] were, in that order, 3.98 nM and 9.0865.
On to `CC(C)N(C)[C@@H]1CC[C@H](N2CC[C@H](Nc3ncnc4ccc(C(F)(F)F)cc34)C2=O)[C@H](NC(=O)COCCNC(=O)COCCNC(=O)CCOCCNC(=O)[C@H]2CC(=O)N(C)[C@@H]2c2cccnc2)C1` [Example 151, (2S,3S)-N-(1-(((1R,2S,5R)-5-(Isopropyl(methyl)amino)-2-((S)-2-oxo-3-((6-(trifluoromethyl)quinazolin-4-yl)amino)pyrrolidin-1-yl)cyclohexyl)amino)-1,7,13-trioxo-3,9,16-trioxa-6,12-diazaoctadecan-18-yl)-1-methyl-5-oxo-2-(pyridin-3-yl)pyrrolidine-3-carboxamide], for which the EC50 in experiment [1] is 3.03 nM. The “pKd of Antibody” value in experiment [2] is 9.0755.
The like results for `CC(C)N(C)[C@@H]1CC[C@H](N2CC[C@H](Nc3ncnc4ccc(C(F)(F)F)cc34)C2=O)[C@H](Nc2c(NCCOCCOCCOCCOCCOCCNC(=O)[C@H]3CC(=O)N(C)[C@@H]3c3cccnc3)c(=O)c2=O)C1` [Example 85, (2S,3S)-N-(17-((2-(((1R,2S,5R)-5-(Isopropyl(methyl)amino)-2-((S)-2-oxo-3-((6-(trifluoromethyl)quinazolin-4-yl)amino)pyrrolidin-1-yl)cyclohexyl)amino)-3,4-dioxocyclobut-1-en-1-yl)amino)-3,6,9,12,15-pentaoxaheptadecyl)-1-methyl-5-oxo-2-(pyridin-3-yl)pyrrolidine-3-carboxamide] were, in that order, 8.24 nM and 9.6885.
The like results for `CC(C)N(C)[C@@H]1CC[C@H](N2CC[C@H](Nc3ncnc4ccc(C(F)(F)F)cc34)C2=O)[C@H](NC(=O)C2CCN(C3CCN(C(=O)CCCCCCCCCNC(=O)[C@@H]4CC(=O)N(C)[C@H]4c4cccnc4)CC3)CC2)C1` [Example 157] were, in that order, 0.2 nM and 10.135.
In the case of `CN1C(=O)C[C@H](C(=O)NCCOCC(=O)NCCOCC(=O)NCCOCCC(=O)N[C@@H]2C[C@H](NC(C)(C)C)CC[C@@H]2N2CC[C@H](Nc3ncnc4ccc(C(F)(F)F)cc34)C2=O)[C@H]1c1cccnc1` [Example 103], the EC50 in experiment [1] is 1.56 nM and 0.577 nM. Moreover, in experiment [2], the “pKd of Antibody” value was 9.0985.
